Data: patent US6916846B2, “Coumermycin analogs as chemical dimerizers of chimeric proteins” (Merck & Co. Inc., priority 2000, dated 2005)
Read-outs that look alike come from different tables or passages of the source.

Tests used:
[1] = test system: STAT5b-GyrB fusion proteins; assay: Inhibition assay in BAF cells, all wells with 90 nM coumermycin; format: cell-based, murine; design: unit not given here; conditions: Table 6; Cou. 90 nM with DMSO in place of inhibitor
Method: An inhibition assay was also conducted for Compounds 1 and 2. For this assay, all wells contained a DMSO concentration of 90 nM of coumermycin. Compounds 1 and 2 were added at concentrations of 1.8 μM, 900 nM, 90 nM and 9 nM. The conditions of the assay were identical to those referenced early in this example, except that one-third of the amount of 3-H thymidine was used.

[2] = test system: STAT5b-GyrB fusion proteins
Method: To evaluate the effectiveness of the analogs of the present invention to act as chemical dimerizers of chimeric proteins, a BAF cell proliferation assay was performed.
BAF Cell Proliferation Assay
We have transfected BAF Cells with the human IL2 Receptor β chain. These transfected cells respond to human IL-2 by increasing their rate of cellular proliferation. This can be assayed by measuring the amount of tritiated thymidine that these cells incorporate into their DNA. One of the signaling proteins activated by IL-2 is the transcription factor STAT5b. This activation of STAT5b is responsible, in part, for the growth-promoting effects of IL-2.
STAT5b is activated by dimerization, an event that is dependent on its phosphorylation and which requires interaction of STAT5b with a ligand bound activated receptor. We can mimic this activation of STAT5b by transfecting BAF cells with a fusion protein consisting of the GyrB domain (the24 kDa amino-terminal fragment of bacterial DNA gyrase, amino acids 2-220) fused to the carboxy-terminus of STAT5b. Addition of the symmetrically dimeric antibiotic coumermycin artificially forces the dimerization of STAT5b-GyrB fusion proteins and results in an increased rate of cell growth that can be measured by the cell's ability to incorporate thymidine. This provides an assay to determine the ability of coumermycin analogs to promote dimerization of STAT5b-GyrB fusion proteins.
The assay is run as follows: BAF cells transfected with the human IL-2 receptor β chain and STAT5b-GyrB are washed twice in phosphate-buffered saline. They are then re-suspended in BAF cell media that lacks IL-2 and placed in a 96-well plate. Increasing amounts of coumermycin, or coumermycin analogs are then added to different wells in a 96-well plate and the cells are incubated overnight. Twenty-four hours later the cell media is spiked with tritiated thymidine and the cells are incubated for an additional 16 hours. The cells are subsequently harvested with a Wallac cell harvester and the amount of tritiated thymidine incorporated is measured using a β scintillation counter.
Set up for BAF proliferation assay was as follows: Spin down cells and wash one time in PBS. Resuspended in BAF cell media without cytokine at 2×10^5 cells/ml. added 100 μl/well or 2×10^4 cells. The compounds were prepared at 2 mg/ml (equivalent to 1.8 nM±5%). Plates were set up so that each condition equaled 1 row of 12 (n=number of wells/row=12). DMSO being utilized as an initial control Compound 5 was prepared in concentrations of 1.6, 16, 163, 450, and 900 nM, and 1.8 μM in DMSO, and as a second control, IL-2 growth factor was added to coumermycin. Two novenamine anologs, Comparative Compounds (CCmpd) 1 and 2, below were also use in this example as control.
The compounds were re-suspended in dimethylsulfoxide (DMSO) at a concentration of 2 mg/ml. […] Next, the cells were washed 2 times with PBS. The re-suspended cells were present at a concentration of 1×10^5 cells /ml in BAF media (RPMI, 10% FCS (fetal calf serum), 1% NEAA (non-essential amino acid), 1% L-G-lu, P/S and Hepes) without IL-2, added 100 μl to well (equal to 1×10^4 cells/well).
The compounds were prepared in as follows: DMSO was used as a control; each of the 5 compounds were combined with DMSO at concentrations of 1.8 μM, 900 nM, 450 nM, 90 nM 9 nM, and 900 nM. As a second control, coumermycin in IL-2 was utilized. Each solution at the aforementioned concentration condition, along with BAF cells, was placed in 1 row (12 wells) of a 96 well plate. Thereafter, 100 μL of compound (twice the concentration) was added to the wells.

COC1C(OC(=O)c2ccc(C)[nH]2)C(O)C(Oc2ccc3c(O)c(NC(=O)c4c[nH]c(C(=O)Nc5c(O)c6ccc(OC7OC(C)(C)C(OC)C(OC(=O)c8ccc(C)[nH]8)C7O)c(C)c6oc5=O)c4C)c(=O)oc3c2C)OC1(C)C (stereo not shown) [Cou., coumermycin]
Prolif. [1]: 7595 | Prolif. ([2]; Table 2, Example 1, stimulus 1.6 nM, 2×10^4 cells/well): 16137 | Prolif. ([2]; Table 2, Example 1, stimulus 16.3 nM): 16261 | Prolif. ([2]; Table 2, Example 1, stimulus 163 nM): 16836 | Prolif. ([2]; Table 2, Example 1, stimulus 450 nM): 18842 | Prolif. ([2]; Table 2, Example 1, stimulus 900 nM): 21057 | Prolif. ([2]; Table 2, Example 1, stimulus 1.8 μM): 23199 | Prolif. (cpm) ([2]; Table 3, Example 2, 900 pM, 1×10^4 cells/well): 18071 cpm | Prolif. (cpm) ([2]; Table 3, Example 2, 9 nM): 20551 cpm | Prolif. (cpm) ([2]; Table 3, Example 2, 90 nM): 25219 cpm | Prolif. (cpm) ([2]; Table 3, Example 2, 450 nM): 27515 cpm | Prolif. (cpm) ([2]; Table 3, Example 2, 900 nM): 30752 cpm | Prolif. (cpm) ([2]; Table 3, Example 2, 1.8 μM): 30664 cpm | Prolif. ([2]; Table 4, Example 3, 900 pM): 7422 | Prolif. ([2]; Table 4, Example 3, 9 nM): 8792 | Prolif. ([2]; Table 4, Example 3, 90 nM): 9860 | Prolif. ([2]; Table 4, Example 3, 450 nM): 10832 | Prolif. ([2]; Table 4, Example 3, 900 nM): 11470 | Prolif. ([2]; Table 4, Example 3, 1.8 μM): 12308 | Prolif. (cpm) ([2]; Table 5, Example 4, 900 pM): 6063 cpm | Prolif. (cpm) ([2]; Table 5, Example 4, 9 nM): 6750 cpm | Prolif. (cpm) ([2]; Table 5, Example 4, 90 nM): 7595 cpm | Prolif. (cpm) ([2]; Table 5, Example 4, 450 nM): 8457 cpm | Prolif. (cpm) ([2]; Table 5, Example 4, 900 nM): 8636 cpm | Prolif. (cpm) ([2]; Table 5, Example 4, 1.8 μM): 8610 cpm | Prolif. (cpm) ([2]; Table 7, Example 5, 900 pM): 36503 cpm | Prolif. (cpm) ([2]; Table 7, Example 5, 9 nM): 44455 cpm | Prolif. (cpm) ([2]; Table 7, Example 5, 90 nM): 51248 cpm | Prolif. (cpm) ([2]; Table 7, Example 5, 450 nM): 60293 cpm | Prolif. (cpm) ([2]; Table 7, Example 5, 900 nM): 64831 cpm | Prolif. (cpm) ([2]; Table 7, Example 5, 1.8 μM): 68728 cpm
